Results from paper PMC7038226, “Discovery of Novel Inhibitors Targeting Multi-UDP-hexose Pyrophosphorylases as Anticancer Agents” (Molecules, 2020).
pIC50, pKi: −log10 of the molar value.

Key:
Format in all cases: biochemical
UGP2 [1] = target: T1, UGP2 (Homo sapiens, UniProt Q16851); assay: enzyme inhibition assay; conditions: residual activity, not per cent inhibition; inhibitor 25 µM printed for GAL-012, assumed for analogue; 5 min preincubation
T1 construct: recombinant, expressed in E. coli HMS174(DE3), Ni-NTA purified; plasmid from earlier work
T1 sequence (Q16851 1-508): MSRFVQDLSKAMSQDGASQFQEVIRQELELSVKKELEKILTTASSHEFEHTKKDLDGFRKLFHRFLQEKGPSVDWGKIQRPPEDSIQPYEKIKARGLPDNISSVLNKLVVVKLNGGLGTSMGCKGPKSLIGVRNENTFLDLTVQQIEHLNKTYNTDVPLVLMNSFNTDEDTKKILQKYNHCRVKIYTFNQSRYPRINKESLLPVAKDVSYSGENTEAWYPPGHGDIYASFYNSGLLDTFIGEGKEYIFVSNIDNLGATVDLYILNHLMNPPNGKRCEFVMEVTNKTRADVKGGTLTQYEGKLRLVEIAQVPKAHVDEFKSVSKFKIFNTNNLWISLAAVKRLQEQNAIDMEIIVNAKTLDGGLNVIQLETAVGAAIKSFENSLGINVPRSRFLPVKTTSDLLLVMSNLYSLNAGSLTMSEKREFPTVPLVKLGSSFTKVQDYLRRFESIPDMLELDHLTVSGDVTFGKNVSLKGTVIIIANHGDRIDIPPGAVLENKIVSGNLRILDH
Source text: enzyme inhibition assay on UGP2

GALT [2] = target: T2, GALT (Homo sapiens, UniProt P07902); assay: enzyme inhibition assay; conditions: residual activity, not per cent inhibition; inhibitor 25 µM printed for GAL-012, assumed for analogue; 5 min preincubation
T2 construct: recombinant, expressed in E. coli HMS174(DE3), Ni-NTA purified; plasmid from earlier work
T2 sequence (P07902 whole entry): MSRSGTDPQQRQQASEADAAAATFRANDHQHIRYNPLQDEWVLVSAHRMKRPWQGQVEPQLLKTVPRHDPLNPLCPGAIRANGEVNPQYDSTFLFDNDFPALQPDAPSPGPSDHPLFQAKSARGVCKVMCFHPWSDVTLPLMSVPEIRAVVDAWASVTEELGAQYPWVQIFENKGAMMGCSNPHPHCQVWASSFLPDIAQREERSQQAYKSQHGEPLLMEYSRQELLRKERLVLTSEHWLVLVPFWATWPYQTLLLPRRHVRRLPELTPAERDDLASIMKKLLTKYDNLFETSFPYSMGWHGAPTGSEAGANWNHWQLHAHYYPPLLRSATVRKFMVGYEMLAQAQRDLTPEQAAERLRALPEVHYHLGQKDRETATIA
Source text: enzyme inhibition assay on GALT

GALT [3] = target: T2, GALT; assay: enzyme inhibition assay
Source text: enzyme inhibition assay on GALT | GAL-012, that inhibit a small family of UDP-hexose pyrophosphorylases-galactose pyro-phosphorylase (GALT)

AGX1/UAP1 = target: T3, AGX1/UAP1 (Homo sapiens, UniProt Q16222); assay: enzyme inhibition assay; conditions: one value stated for GALT, UGP2 and AGX1/UAP1 together
T3 construct: full-length, cDNA from HepG2 cells, pET30A(+) in E. coli HMS174(DE3), Ni-NTA purified
T3 sequence (Q16222 1-505 isoform Q16222-2): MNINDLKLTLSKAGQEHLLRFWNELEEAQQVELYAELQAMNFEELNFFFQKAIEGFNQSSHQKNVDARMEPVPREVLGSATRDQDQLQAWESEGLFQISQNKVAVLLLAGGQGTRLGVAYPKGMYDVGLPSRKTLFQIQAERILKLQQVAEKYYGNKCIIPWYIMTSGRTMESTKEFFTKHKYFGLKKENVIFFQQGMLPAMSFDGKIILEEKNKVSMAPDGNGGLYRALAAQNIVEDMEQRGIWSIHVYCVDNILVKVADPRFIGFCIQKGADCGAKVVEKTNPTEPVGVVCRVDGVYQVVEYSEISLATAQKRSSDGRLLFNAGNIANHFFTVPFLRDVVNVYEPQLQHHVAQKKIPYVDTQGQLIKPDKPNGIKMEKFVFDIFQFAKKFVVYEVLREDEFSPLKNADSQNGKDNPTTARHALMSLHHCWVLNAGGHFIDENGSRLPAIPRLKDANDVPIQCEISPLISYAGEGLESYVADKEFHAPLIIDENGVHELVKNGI

GALT [4] = target: T2, GALT; assay: initial velocities, Lineweaver-Burk
UGP2 [5] = target: T1, UGP2; assay: enzyme inhibition assay
Source text: enzyme inhibition assay on UGP2 | UDP-glucose pyrophosphorylase (UGP2)

Compound: CN(C)/C=C/C(=O)c1ccc2c(c1)C(C)(C)C(=O)N2C [GAL-012-2]
- Enzyme Inhibitory Activity / UGP2 (UGP2 [1]): 63.8 ± 4%
- Enzyme Inhibitory Activity / GALT (GALT [2]): 63.4 ± 2.3%

Compound: CN1C(=O)C(C)(C)c2cc(-c3ccnc(N)n3)ccc21 [GAL-012]
- pIC50 (GALT [3]): 4.52
- pIC50 (AGX1/UAP1): 4.52
- pKi (GALT [4]): ~4.52
- pIC50 (UGP2 [5]): 4.52
